Measurements as given in US20110045998A1, “CANDIDATE GENES AND BLOOD BIOMARKERS FOR BIPOLAR MOOD DISORDER, ALCOHOLISM AND STRESS DISORDER” (priority 2007, published 2011).
Entries after “also recorded” stand apart in the source; their conditions may differ. Read-outs that look alike come from different tables or passages of the source.

What was measured:
[1] = test system: DBP KO mice; assay: Sleep deprivation experiments with valproate pre-treatment, locomotor activity by video tracking; format: in vivo
Protocol: To further characterize the behavioral phenotype of the DBP KO mice, group-housed (NST) male DBP KO mice were subjected to sleep deprivation for a 24 hour period. Following sleep deprivation, sleep-deprived (SD) mice and control non sleep-deprived (NSD) mice were monitored with video-tracking software. […] In a second sleep deprivation experiment, mice were pre-treated with an IP valproate injection (200 mg/kg) immediately prior to the sleep deprivation experiment. If the change in locomotor behavior that accompanies sleep-deprivation in the SD animals is representative of an endophenotype that is associated with bipolar disorder, then administration of the mood stabilizing agent valproate should counteract the behavioral response of DBP KO mice to sleep deprivation. […] Sleep Deprivation Experiments: Sleep deprivation studies consisted of light cycle changes, with no handling of animals involved, to avoid inducing non-sleep related handling stress confounds. Male DBP KO mice were used in the sleep deprivation experiments as follows: sleep deprived (SD) animals were removed from the standard housing room with a 12 hour off/12 hour on (reverse) light cycle and kept in a dark room overnight the night before the experiment. Non-sleep deprived (NSD) animals were kept in the housing room with the standard light cycle the night before the experiment to allow for a normal night's sleep. […]

[2] = test system: brain gene expression (PFC, AMY, CP, VT); set-up: key: I—Increased in expression; D—decreased in expression; settings: cited from earlier work
[3] = test system: DBP KO NST mice; assay: Locomotor pattern testing (open field video tracking) after acute methamphetamine, non-stressed mice; format: in vivo; settings: methamphetamine 10 mg/kg intra-peritoneal
Protocol: Drugs: Mice were administered saline, valproate (200 mg/kg), or methamphetamine (10 mg/kg) acutely by intra-peritoneal injection.
Locomotor Pattern Testing: A SMART II Video Tracker (VT) system (San Diego Instruments, San Diego, Calif.) was used to track movement of mice immediately after drug administration and again 24 hours later. After injection, mice were placed in the lower-right-hand corner of one of four adjacent, 41×41×34-cm^3 enclosures. Mice had no physical contact with other mice during testing. Each enclosure has nine pre-defined areas, i.e. center area, corner area, and wall area. The movements of the mice were recorded for 30 minutes.
Measures of overall locomotor activity were obtained and represented by the total distance traveled within and between each of the nine regions of the enclosure. Two categories of behavior were obtained. First, the amount of locomotor activity was assessed by using the total distance traveled in the open field in a 30-minute interval. Second, the spatial scaling exponent, d, or spatial D, was obtained. Spatial D is a quantified measure of the geometric patterns of locomotor activity. Briefly, spatial d is a measure of the non-linear nature of an animal's locomotor movement and is quantified on a scale from 1 to 2; with d=1 indicating extremely linear movement and d=2 representing highly non-linear locomotor movement.
Data and Statistical Analysis: Two-way analyses of variance (ANOVAs) were used to compare total distance traveled and spatial d. Genotype and/or drug treatment were between-subjects variables, and time was a within-subjects variable. All computations were conducted with SPSS statistical software (SPSS Inc., Chicago, Ill.).
Non-Stress (NST) vs. Stress (ST) Experiments: For the Non-Stress (NST) experiments, mice were group housed. For the Stress (ST) experiments, mice were subjected to a chronic stress paradigm consisting of isolation (single housing) for one month, with an acute stressor (behavioral challenge tests) in Week 3. […] At four weeks, mice were injected with either saline or methamphetamine.

CCCC(CCC)C(=O)O [valproate, valproic acid]
locomotion in NSD animals ([1]; NSD DBP KO mice, valproate 200 mg/kg vs non-valproate treated): did not have any significant effect on locomotion | total distance traveled, sleep-deprived (SD) vs non sleep-deprived (NSD) ([1]; male DBP KO mice, IP valproate 200 mg/kg prior to 24 hour sleep deprivation): increase in locomotion is prevented; also recorded: no significant difference in the locomotor behavior of SD and NSD animals | Cdk5r1 expression, Bipolar CFG (Ogden et al. 2004) ([2]; AMY, Cat II): AMY Cat II-Meth(D) VPA(D) | Cacnb2 expression, Bipolar CFG (Ogden et al. 2004) ([2]; AMY, Cat III): AMY Cat III-VPA(D) | Ckmt1 expression, Bipolar CFG (Ogden et al. 2004) ([2]; AMY, Cat III): AMY Cat III-Meth(I) VPA(I) | Ids expression, Bipolar CFG (Ogden et al. 2004) ([2]; AMY, Cat III): AMY Cat III-VPA(D) | Mef2c expression, Bipolar CFG (Ogden et al. 2004) ([2]; AMY, Cat III): AMY Cat III-VPA(D) | Ptov1 expression, Bipolar CFG (Ogden et al. 2004) ([2]; AMY, Cat III): AMY Cat III-VPA(I) | Actb expression, Bipolar CFG (Ogden et al. 2004) ([2]; AMY, Cat IV): AMY Cat IV-VPA (I) | Alcam expression, Bipolar CFG (Ogden et al. 2004) ([2]; AMY, Cat IV): AMY Cat IV-VPA(D) | Atp8a1 expression, Bipolar CFG (Ogden et al. 2004) ([2]; AMY, Cat IV): AMY Cat IV-VPA(D) | Clasp2 expression, Bipolar CFG (Ogden et al. 2004) ([2]; AMY, Cat IV): AMY Cat IV-VPA(D) | Peg3 expression, Bipolar CFG (Ogden et al. 2004) ([2]; AMY, Cat IV): AMY Cat IV-VPA(D) | Ptpn5/Step expression, Bipolar CFG (Ogden et al. 2004) ([2]; AMY, Cat IV): AMY Cat IV-VPA (I) | Sez6 expression, Bipolar CFG (Ogden et al. 2004) ([2]; AMY, Cat IV): AMY Cat IV-VPA(I) | Timp2 expression, Bipolar CFG (Ogden et al. 2004) ([2]; AMY, Cat IV): AMY Cat IV-VPA (D) | Cdk5r1 expression, Bipolar CFG (Ogden et al. 2004) ([2]; CP, Cat III): CP Cat III-VPA(I) | Alcam expression, Bipolar CFG (Ogden et al. 2004) ([2]; CP, Cat IV): CP Cat IV-VPA(D) | Cacnb2 expression, Bipolar CFG (Ogden et al. 2004) ([2]; CP, Cat IV): CP Cat IV-VPA(I) | Gnb1 expression, Bipolar CFG (Ogden et al. 2004) ([2]; CP, Cat IV): CP Cat IV-VPA (D) | Ids expression, Bipolar CFG (Ogden et al. 2004) ([2]; CP, Cat IV): CP Cat IV-VPA(I) | Mef2a expression, Bipolar CFG (Ogden et al. 2004) ([2]; CP, Cat IV): CP Cat IV-VPA (I) | Gsk3b expression, Bipolar CFG (Ogden et al. 2004) ([2]; CP, IV): CP IV-VPA (D) | Gpr88 expression, Bipolar CFG (Ogden et al. 2004) ([2]; PFC, Cat I): PFC Cat I-Meth(I) VPA (I) | Mef2c expression, Bipolar CFG (Ogden et al. 2004) ([2]; PFC, Cat I): I | Penk1 expression, Bipolar CFG (Ogden et al. 2004) ([2]; PFC, Cat I): PFC Cat I-Meth(I) VPA(I) | Ppp1r1b/Darp32 expression, Bipolar CFG (Ogden et al. 2004) ([2]; PFC, Cat I): PFC Cat I-Meth(I) VPA(I) | Tac1 expression, Bipolar CFG (Ogden et al. 2004) ([2]; PFC, Cat I): PFC Cat I-Meth(I) VPA(I) | Gng7 expression, Bipolar CFG (Ogden et al. 2004) ([2]; PFC, Cat III): PFC Cat III-Meth(I) VPA(I) | Scn4b expression, Bipolar CFG (Ogden et al. 2004) ([2]; PFC, Cat III): PFC Cat III-Meth(I) VPA(I)

CN[C@@H](C)Cc1ccccc1 [methamphetamine]
Cdk5r1 expression, Bipolar CFG (Ogden et al. 2004) ([2]; AMY, Cat II): AMY Cat II-Meth(D) VPA(D) | Ckmt1 expression, Bipolar CFG (Ogden et al. 2004) ([2]; AMY, Cat III): AMY Cat III-Meth(I) VPA(I) | Sec24d expression, Bipolar CFG (Ogden et al. 2004) ([2]; AMY, Cat III): AMY Cat III-Meth(I) | Gas5 expression, Bipolar CFG (Ogden et al. 2004) ([2]; AMY, Cat IV): AMY Cat IV-Meth(I) | Gnb1 expression, Bipolar CFG (Ogden et al. 2004) ([2]; AMY, Cat IV): AMY Cat IV-Meth (I) | Mef2a expression, Bipolar CFG (Ogden et al. 2004) ([2]; AMY, Cat IV): AMY Cat IV-Meth (D) | Ttr expression, Bipolar CFG (Ogden et al. 2004) ([2]; CP, Cat IV): CP Cat IV-Meth(I) | Gpr88 expression, Bipolar CFG (Ogden et al. 2004) ([2]; PFC, Cat I): PFC Cat I-Meth(I) VPA (I) | Mef2c expression, Bipolar CFG (Ogden et al. 2004) ([2]; PFC, Cat I): D | Penk1 expression, Bipolar CFG (Ogden et al. 2004) ([2]; PFC, Cat I): PFC Cat I-Meth(I) VPA(I) | Ppp1r1b/Darp32 expression, Bipolar CFG (Ogden et al. 2004) ([2]; PFC, Cat I): PFC Cat I-Meth(I) VPA(I) | Tac1 expression, Bipolar CFG (Ogden et al. 2004) ([2]; PFC, Cat I): PFC Cat I-Meth(I) VPA(I) | Alcam expression, Bipolar CFG (Ogden et al. 2004) ([2]; PFC, Cat III): PFC Cat III-Meth(D) | Ddx6 expression, Bipolar CFG (Ogden et al. 2004) ([2]; PFC, Cat III): PFC Cat III-Meth (D) | Gng7 expression, Bipolar CFG (Ogden et al. 2004) ([2]; PFC, Cat III): PFC Cat III-Meth(I) VPA(I) | Scn4b expression, Bipolar CFG (Ogden et al. 2004) ([2]; PFC, Cat III): PFC Cat III-Meth(I) VPA(I) | Actb expression, Bipolar CFG (Ogden et al. 2004) ([2]; PFC, Cat IV): PFC Cat IV-Meth (D) | Arhgap5 expression, Bipolar CFG (Ogden et al. 2004) ([2]; PFC, Cat IV): PFC Cat IV-Meth (I) | Gabra4 expression, Bipolar CFG (Ogden et al. 2004) ([2]; PFC, Cat IV): PFC Cat IV-METH (I) | Gsk3b expression, Bipolar CFG (Ogden et al. 2004) ([2]; PFC, Cat IV): PFC Cat IV-METH (D) | Hectd1 expression, Bipolar CFG (Ogden et al. 2004) ([2]; PFC, Cat IV): PFC Cat IV-Meth(D) | Peg3 expression, Bipolar CFG (Ogden et al. 2004) ([2]; PFC, Cat IV): PFC Cat IV-Meth(D) | Pten expression, Bipolar CFG (Ogden et al. 2004) ([2]; PFC, Cat IV): PFC Cat IV-Meth(D) | Tmod2 expression, Bipolar CFG (Ogden et al. 2004) ([2]; PFC, Cat IV): PFC Cat IV-METH (D) | Alcam expression, Bipolar CFG (Ogden et al. 2004) ([2]; VT, Cat IV): VT Cat IV-Meth(D) | Ddx6 expression, Bipolar CFG (Ogden et al. 2004) ([2]; VT, Cat IV): VT Cat IV-Meth (D) | stereotypy, as measured by Spatial Deviance ([3]; DBP KO NST mice): reduction in stereotypy | Total Distance Traveled ([3]; DBP KO NST mice, 30 minutes open field): reversed this decrease | stereotypy, as measured by Spatial Deviance ([3]; WT mice): trend towards an increase in stereotypy
